This note sets out measurements from US20100144543A1, “Epigenetic silencing of tumor suppressor genes” (The Salk Institute for Biological Studies, priority 2008, published 2010).

Numbered stars: 1 amine (or outer) side, 2 acyl side, 3 side chain; on linkers, the order of the positions; unused ones are H or OH. Bridge positions count the residues as written; N and C are the ends. Square brackets hold non-standard residues; d marks the D form. Peptide text beside a SMILES is read from it. I, II: the chains in the order shown. Actinocin(9to1) = Cc1c2oc3c(C)ccc(C(=O)[*:1])c3nc-2c(C(=O)[*:2])c(N)c1=O; NMeV = CN[C@H](C(=O)O)C(C)C; Sar = CNCC(=O)O

Format in all cases: cell-based, human
Test [1] has as its system p16. Kind of test: Inhibition of transcription, RT-PCR of p16. Particulars: MDA-MB-435 cells, 24 hours, 2.5 μg/ml Actinomycin D or 1 μM Flavopiridol. The text has this:
(§1) CTCF is a ubiquitous, multifunctional protein that has a critical role in organizing distinct chromosomal domains through boundary/insulator formation (Filippova et al. (2005) “Boundaries between chromosomal domains of X inactivation and escape bind CTCF and lack CpG methylation during early development.” Dev Cell 8: 31-42; Ishihara et al. (2006) “CTCF-dependent chromatin insulator is linked to epigenetic remodeling.” Mol Cell 23: 733-742; Splinter et al. (2006) “CTCF mediates long-range chromatin looping and local histone modification in the beta-globin locus.” Genes Dev 20: 2349-2354) and in repressing or activating transcription. Because we saw a pronounced change in chromatin structure upstream of the p16 gene when active or silenced (FIG. 1), we explored the possibility that CTCF can associate within this region. […] Yet, we detected CTCF binding at a well-characterized target gene, c-Myc, in both p16-expressing and non-expressing cell types. […] CTCF was immunoprecipitated and analyzed for association with the p16^INK4a and RASSF1A gene. […]
(§2) MDA-MB-435 cells were treated with Flavopiridol (Sigma) or Actinomycin D (Sigma) at 1 μM and 2.5 μg/ml, respectively, for 24 hours. At this time cells were harvested and analyzed for gene expression and CTCF binding.

Test [2] has as its system RASSF1A. In words: Inhibition of transcription, RT-PCR of RASSF1A. Particulars: MDA-MB-435 cells, 24 hours, 2.5 μg/ml Actinomycin D or 1 μM Flavopiridol.
Text: as §1, §2

In a further test the test system is CTCF. Kind of test: PARlation status of CTCF, IP with anti-PAR antibody. The following applies: MDA-MB-435 cells, treated with 3-ABA for 24 hours. On the procedure:
As described above, CTCF may be important for maintaining an active p16 gene. To further investigate possible CTCF defects that may impact its function in p16-silenced T47D breast cancer cells, we examined its post-translational modifications and association with several known protein interaction partners. […] In addition, western blots were performed to determine the protein levels of CTCF and putative interacting partners in MDA-MB-435 and T47D cells (FIG. 4B). […] Moreover, PARP-1 and Nucleolin appear to associate with CTCF in a mutually exclusive manner, with Nucleolin being present in CTCF complexes only in p16 expressing cells. To explore this further, we examined the PARlation status of CTCF in each cell type using an antibody that recognizes ADP-ribose polymers (PAR). Unexpectedly, we found PARlation associated with both CTCF and Nucleolin in p16-expressing MDA-MB-435 cells but not in p16-silenced TD47 cells (FIG. 4D, upper panels). […] Inputs are equal to 2.5% starting material.
2 mg of whole cell lysates were diluted in IP buffer with 0.5% Triton X-100. Protein mixes were pre-cleared for 1-2 hours with protein G Sepharose, after which the beads were removed and CTCF (Upstate) or anto-phosphotyrosine (Upstate) antibody added overnight at 4° C. to capture complexes. Complexes were recovered with protein G Sepharose, washed 4 times in IP buffer and subsequently analyzed by SDS-PAGE.

Test [3] relates to p16. In words: qPCR expression analysis of CTCF target gene p16 upon inhibition of PARP activity. The following applies: MDA-MB-435 cells, 24 hours, 5 mM 3-ABA, normalized to c-Myc. On the procedure:
(§3) Next, we examined whether PARlation of target proteins impacts the expression of CTCF-regulated tumor suppressor genes. To achieve this, we perturbed cellular PARlation activity in p16-expressing cells by two approaches: first, incubation with the broad-spectrum PARP inhibitor 3-ABA; and second, shRNA-mediated ablation of PARP-1. […] Results are normalized to c-Myc levels. Error bars represent ±standard deviation.
(§4) PARP-1 knockdown was achieved using the MISSION™ Lentiviral shRNA system from Sigma. Lentiviral particles were packaged in HEK293T cells, with virus collected 24 hours post-transfection. Cells infected with shRNA-containing virus and polybrene were selected using puromycin at 72 hours post infection.
On the technique in general: Real-time PCR tracks product formation cycle by cycle.

Test [4] deals with RASSF1A. In words: qPCR expression analysis of CTCF target gene RASSF1A upon inhibition of PARP activity. The following applies: MDA-MB-435 cells, 24 hours, 5 mM 3-ABA, normalized to c-Myc. On the procedure:
as §3, §4

A further test has as its system p16 gene. Kind of test: p16 mRNA induction after AZA treatment (RT-PCR, qPCR). Particulars: T47D cells treated with both AZA and Trichostatin A. The text has this: The p16 tumor suppressor gene is commonly silenced in numerous types of human cancers and remains a relevant therapeutic target of wide interest. One method that is extensively employed to restore p16 expression, both clinically and in vitro, is treatment of cancer cells with hypomethylating-nucleoside analogues such as 5′AZA-2′-deoxycytidine (AZA) (Otterson et al. (1995) “CDKN2 gene silencing in lung cancer by DNA hypermethylation and kinetics of p16INK4 protein induction by 5-aza 2′ deoxycytidine.” Oncogene 11: 1211-1216; Schrump et al. (2006) “Phase I study of decitabine-mediated gene expression in patients with cancers involving the lungs, esophagus, or pleura.” Clin Cancer Res 12: 5777-5785), which reverses DNA methylation. We reasoned that treatment of cells with AZA might also restore CTCF binding at the p16 upstream promoter through one of two mechanisms. First, CTCF is known to bind DNA in a methylation-sensitive fashion (Hark et al. (2000) “CTCF mediates methylation-sensitive enhancer-blocking activity at the H19/Igf2 locus.” Nature 405: 486-489); thus, demethylation of the p16 locus might allow CTCF to reassociate. […]

Take `Cc1c2oc3c(C)ccc(C(=O)N[C@@H]4C(=O)N[C@H](C(C)C)C(=O)N5CCC[C@H]5C(=O)N(C)CC(=O)N(C)[C@@H](C(C)C)C(=O)O[C@@H]4C)c3nc-2c(C(=O)N[C@@H]2C(=O)N[C@H](C(C)C)C(=O)N3CCC[C@H]3C(=O)N(C)CC(=O)N(C)[C@@H](C(C)C)C(=O)O[C@@H]2C)c(N)c1=O` [Actinomycin D] (I: T[dV]P[Sar][NMeV] / II: T[dV]P[Sar][NMeV]; ester I:1-I:C, II:1-II:C; linker I:N-II:N via Actinocin(9to1)): the p16 transcription entry in the test on p16 [1] is reported as “inhibition”. Also, the RASSF1A transcription entry in the test with RASSF1A [2] is on record as “inhibition”.

`NC(=O)c1cccc(N)c1` [3-ABA, 3-Aminobenzamide]: the “PARlation associated with CTCF and Nucleolin” value in the test on CTCF is reported as “inhibited”. For the same compound, in the test on p16 [3], the “p16 mRNA levels” value is reported as “significant reduction”. Further, in the test with RASSF1A [4], the “RASSF1A mRNA levels” value is recorded as “dramatic decrease”.

Consider `CN1CC[C@H](c2c(O)cc(O)c3c(=O)cc(-c4ccccc4Cl)oc23)[C@H](O)C1` [Flavopiridol], for which the p16 transcription entry in the test on p16 [1] is on record as “inhibition”. The RASSF1A transcription result in the test on RASSF1A [2] is “inhibition”.

For the compound `CC(/C=C/C(=O)NO)=C\[C@@H](C)C(=O)c1ccc(N(C)C)cc1` [Trichostatin A], the “synergistic p16 gene reactivation” value in the test on p16 gene is given as “No synergistic p16 gene reactivation”.
